The record followed here is US20250250257A1, “NOVEL CRYSTALLINE FORMS” (Assembly Biosciences, Inc., priority 2021, published 2025).

The nature of data set [1]: Competitive slurry studies, solid form checked by XRPD (thermodynamic stability of forms). Format: physicochemical. The procedure:
Competitive slurry studies with Type 1 and the material produced from manufacture (Type 1 and 8 mixture) were performed at 25 and 50° C. in THF, EtOH and EtOAc. The solid form was checked by XRPD on day 3 and day 7.

The nature of data set [2]: DVS (water sorption, hygroscopicity, form change post-DVS). Type of data set: physicochemical.

Take `Cn1cnc([C@@H]2C[C@@H]3C[C@@](O)(c4cc(OCC(C)(C)O)nn4C)C[C@@H]3C2)c1C(=O)Nc1ccc(F)c(Cl)c1` [Type 8, N-(3-chloro-4-fluorophenyl)-4-((2s,3aR,5r,6aS)-5-hydroxy-5-(3-(2-hydroxy-2-methylpropoxy)-1-methyl-1H-pyrazol-5-yl)octahydropentalen-2-yl)-1-methyl-1H-imidazole-5-carboxamide]: the “thermodynamic stability among all forms discovered” value in data set [1] is “the most thermodynamically stable form discovered to date”. In addition, the “relative thermodynamic stability of the form” value in data set [1] (at 25 and 50° C., versus Type 1) is reported as “the more thermodynamically stable form”. Further, in data set [2] (80% RH), the “water update at 80% RH (DVS)” value is given as 0.1%. For the same compound, the “form change post-DVS (XRPD)” value in data set [2] (after DVS (desorption and resorption)) is recorded as “No change in crystalline form”. The “hygroscopicity (from DVS)” value in data set [2] (based on water sorption at 80% RH) is “non-hygroscopic”.
